Counter-ions that a name gives are not always drawn.
Key:
[1] = target: alpha-2-receptor; experiment: Radioligand binding, alpha-2 adrenoceptor, rat cerebral cortices, [^3 H]-rauwolscine; details: for Ki: rat cerebral cortices, [^3 H]-rauwolscine; for alpha-2 - Selectivity Ki alpha-1/Ki alpha 2: ratio of Ki alpha-1 to Ki alpha-2
Protocol: (§1) The compounds were assessed for alpha-adrenergic receptor subtype selectivity by use of radioligand binding techniques as described previously (DeBernardis et.al. J. Med. Chem. 28, 1398 (1985)).

[2] = target: T1, alpha-1-receptor (Rattus norvegicus, UniProt P15823); experiment: Radioligand binding, alpha-1 adrenoceptor, rat liver homogenates, [^3 H]-prazosin
T1 construct: rat liver homogenates; from tissue; host or cells: rat liver homogenates
T1 sequence (P15823 1-515): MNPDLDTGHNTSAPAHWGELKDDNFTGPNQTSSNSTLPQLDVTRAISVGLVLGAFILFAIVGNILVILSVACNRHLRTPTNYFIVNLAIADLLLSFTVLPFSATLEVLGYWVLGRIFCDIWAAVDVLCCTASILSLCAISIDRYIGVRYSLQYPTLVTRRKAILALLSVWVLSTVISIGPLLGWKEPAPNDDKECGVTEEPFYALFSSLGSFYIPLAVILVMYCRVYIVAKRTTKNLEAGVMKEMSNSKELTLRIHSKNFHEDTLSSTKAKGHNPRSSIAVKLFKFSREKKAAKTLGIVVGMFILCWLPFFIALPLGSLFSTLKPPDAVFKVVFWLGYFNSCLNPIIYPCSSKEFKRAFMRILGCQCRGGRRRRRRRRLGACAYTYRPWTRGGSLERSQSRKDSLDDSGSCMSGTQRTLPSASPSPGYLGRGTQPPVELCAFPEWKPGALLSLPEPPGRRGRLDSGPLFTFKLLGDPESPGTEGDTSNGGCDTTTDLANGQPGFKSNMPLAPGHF
Protocol: as §1

[3] = system: intraocular pressure; experiment: Effect of topically administered compounds on intraocular pressure of rabbits; format: in vivo, New Zealand rabbits; details: 0.3% soln., 0.1 ml topical
Protocol: The intraocular pressure lowering effects of the compounds were evaluated in unanesthetized male albino, New Zealand rabbits weighing 2.0 to 2.5 kg. The rabbits were placed in Plas Labs restraining devices for the duration of the experiment. Intraocular pressure (IOP) was measured with a Bausch and Lomb Applamatic Tonometer and recorded as the average of three individual readings at each time point in the experiment. Baseline IOP values were established at three time points separated by 30 minutes. Each compound or vehicle was applied topically to the cornea in a volume of 0.1 ml to one eye in each six rabbits. The contralateral eye was untreated. IOP was recorded at 5, 15, 30, 60 and 90 minutes after dosing.

| Ki [1] [nM] | alpha-2 - Selectivity Ki alpha-1/Ki alpha 2 [1] | Ki [2] [nM] | Molecule | % Change in Intraocular Pressure After Treatment Compared to Untreated Eye ([3]; 5 minutes) [%] | % Change in Intraocular Pressure After Treatment Compared to Untreated Eye ([3]; 15 minutes) [%] | % Change in Intraocular Pressure After Treatment Compared to Untreated Eye ([3]; 30 minutes) [%] | % Change in Intraocular Pressure After Treatment Compared to Untreated Eye ([3]; 60 minutes) [%] | % Change in Intraocular Pressure After Treatment Compared to Untreated Eye ([3]; 90 minutes) [%] |
| --- | --- | --- | --- | --- | --- | --- | --- | --- |
| 4.8 | 11 | 51 | 5-Methoxy-1-(3-phenylpyrrolidino-1-methyl) indane hydrochloride [Example 152] | – | – | – | – | – |
| 0.5 | 236 | 118 | CN(C)c1ccc2c(c1)CCCC2CN1CCC(c2ccccc2)C1 (centres unmarked) [Example 188, 6-(N-N'-dimethylamino)-1-(3-phenylpyrrolidino-1-methyl)tetralin dihydrochloride] | – | – | – | – | – |
| 10 | 113 | 1130 | CN(CCc1cccs1)CC1CCCc2cc(Cl)ccc21 (centres unmarked) [Example 49, 1-((N-Methylamino)meth-N-(2-(2-thienyl)ethyl))-6-chloro tetralin hydrochloride] | – | – | – | – | – |
| 4.9 | 45 | 220 | Fc1ccc2c(c1)CCCC2CN1CCC(c2cccs2)C1 (centres unmarked) [Example 149, 6-Fluoro-1-(3-(2-thienyl)pyrrolidino-1-methyl) tetralin methanesulfonate] | – | – | – | – | – |

| Molecule | Ki [1] [nM] | alpha-2 - Selectivity Ki alpha-1/Ki alpha 2 [1] | Ki [2] [nM] | % Change in Intraocular Pressure After Treatment Compared to Untreated Eye ([3]; 5 minutes) [%] | % Change in Intraocular Pressure After Treatment Compared to Untreated Eye ([3]; 15 minutes) [%] | % Change in Intraocular Pressure After Treatment Compared to Untreated Eye ([3]; 30 minutes) [%] | % Change in Intraocular Pressure After Treatment Compared to Untreated Eye ([3]; 60 minutes) [%] | % Change in Intraocular Pressure After Treatment Compared to Untreated Eye ([3]; 90 minutes) [%] |
| --- | --- | --- | --- | --- | --- | --- | --- | --- |
| CN(CCc1ccccc1)CC1CCCc2cc(O)ccc21 (centres unmarked) [11 (HCl salt)] | 1.7 | 149 | 254 | -38 | -55 | -54 | -44 | -20 |

— patent US5140040A, “1-aminomethyl-1,2,3,4-tetrahydronaphthalenes” (Abbott Laboratories, priority 1991, dated 1992)
